In patent publication US12358911B2, “Heterocyclic comipound as CDK-HDAC dual pathway inhibitor” (Hangzhou Innogate Pharma Co., Ltd., priority 2018, dated 2025) one finds IC50 data, which are given here for 9 molecules.

One may read the pIC50 as −log10 of the IC50, conventionally taken in molar units.

Assay type in all cases: biochemical
Assay [1] has as its target CDK4/CycD3 (Homo sapiens (Human), UniProt P11802). Put plainly: CDK4 kinase assay (Mobility Shift Assay). The settings on record: 28° C. As to the method: (§1) • Method 1: In vitro enzymatic activity of the CDK isoforms CDK2/CycA2, CDK4/CycD3 and CDK6/cycD3 were measured using Mobility Shift Assay that monitors phosphorylation ratio of FAM labelled peptide (Peptide 18 for CDK2/CycA2, Peptide 8 for CDK4/CycD3). CDK2/CycA2 and CDK6/CycD3 were assayed under buffer conditions in the presence of 50 mM HEPES (pH 7.5), 10 mM MgCl2, 0.0015% Brij-35 and 2 mM dithiothreitol; CDK4/CycD3 with buffer condition of 20 mM HEPES (pH 7.5), 10 mM MgCl2, 0.01% Triton X-100 and 2 mM dithiothreitol. Prepare compounds to 50× of the final desired highest inhibitor concentration by 100% DMSO and serial dilution in 3-fold for total of 10 concentrations. For each isoform, dosage of enzyme and substrate are CDK2/CycA2 12 nM, ATP Km 39 μM; CDK4/CycD3 10 nM, ATP Km 221 μM; CDK6/cycD3 15 nM, ATP Km 800 μM. After assay for 60 min, 180 min, 60 min respectively at 28° C., reactions were terminated with stop solution (50 mM EDTA, 0.015% Brij-35, 0.2% Coating Reagent #3 and 100 mM HEPES (pH 7.5)). Collect conversion on Caliper EZ Reader. IC50 values were calculated by fitting the dose-response curves with Xlfit excel add-in version 4.3.1. • Method 2: In vitro enzymatic activity of the CDK isoforms CDK2/CycA2, CDK4/CycD3 and CDK6/CycD3 were measured using Mobility Shift Assay that monitors phosphorylation ratio of FAM labelled peptide (Peptide 18 for CDK2/CycA2, Peptide 8 for CDK4/CycD3 and CDK6/CycD3). CDK2/CycA2, CDK4/CycD3 and CDK6/cycD3 were assayed under buffer conditions in the presence of 50 mM HEPES (pH 7.5), 10 mM MgCl2, 0.0015% Brij-35 and 2 mM dithiothreitol. Prepare compounds to 100× of the final desired highest inhibitor concentration by 100% DMSO and serial dilution in 3-fold for total of 10 concentrations, each concentration contains 1% DMSO. […] After assay for 30 min, 150 min, 150 min respectively at 28° C., reactions were terminated with stop solution (50 mM EDTA, 0.015% Brij-35, 0.2% Coating Reagent #3 and 100 mM HEPES (pH 7.5)). Collect conversion on Caliper EZ Reader. IC50 values were calculated by fitting the dose-response curves with GraphPad Prism V5.0.

In assay [2] the target is CDK6/CycD3 (Homo sapiens (Human), UniProt Q00534). In words: CDK6 kinase assay (Mobility Shift Assay). The settings on record: 28° C. As to the method: as §1
CDK6/CycD3, sequence (Q00534 whole entry, species assumed): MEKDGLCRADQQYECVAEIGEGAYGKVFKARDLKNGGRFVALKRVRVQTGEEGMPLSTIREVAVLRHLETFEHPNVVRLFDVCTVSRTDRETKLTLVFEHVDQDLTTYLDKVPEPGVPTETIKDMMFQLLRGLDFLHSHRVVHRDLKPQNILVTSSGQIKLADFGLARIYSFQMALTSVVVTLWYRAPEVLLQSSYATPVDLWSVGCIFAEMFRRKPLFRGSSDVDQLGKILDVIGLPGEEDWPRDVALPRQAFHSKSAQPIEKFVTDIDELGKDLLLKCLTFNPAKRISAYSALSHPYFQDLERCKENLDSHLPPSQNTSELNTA
CDK6/CycD3, sequence (P30281 whole entry partner, species assumed): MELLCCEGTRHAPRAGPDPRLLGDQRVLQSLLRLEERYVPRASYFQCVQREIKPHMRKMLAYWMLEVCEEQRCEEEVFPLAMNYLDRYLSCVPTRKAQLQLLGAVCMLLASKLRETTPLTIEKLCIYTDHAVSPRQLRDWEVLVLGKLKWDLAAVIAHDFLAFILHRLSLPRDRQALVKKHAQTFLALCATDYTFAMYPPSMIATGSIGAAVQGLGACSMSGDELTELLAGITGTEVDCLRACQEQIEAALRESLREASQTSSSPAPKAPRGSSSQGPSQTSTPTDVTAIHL
The target of assay [3] is CDK2/CycA2 (Homo sapiens (Human), UniProt P24941). Put plainly: CDK2 kinase assay (Mobility Shift Assay). The note with it: 28° C. As to the method:
as §1

Assay [4] deals with recombinant, full-length HDAC-1 (Homo sapiens (Human), UniProt Q13547). Put plainly: HDAC-1 assay (fluorogenic Ac-peptide-AMC). The method, then:
(§2) 2. HDAC-1 and HDAC-6 Assays: • Method 1: The inhibitory effect of compounds on HDAC-1 and HDAC-6 function was determined in vitro using an optimized homogenous assay performed in 384-well plate format. In this assay, recombinant, full-length HDAC-1 or HDAC-6 protein (BPS Biosciences) was incubated with Ac-peptide-AMC with concentration in Km plot. Reactions were performed in Tris-based assay buffer and followed for fluorogenic release of 7-amino-4-methylcoumarin from substrate upon deacetylase and trypsin enzymatic activity. Fluorescence measurements were obtained using a multilabel plate reader (Synergy MX with excitation at 355 nm and emission at 460 nm.). Data were analyzed on a plate-by-plate basis for the linear range of fluorescence over time. Fit the data in GraphPad Prism V5.0 software to obtain ICso values using equation (Y=Bottom+(Top−Bottom)/(1+10^((Log IC50−X)*Hill Slope), Y is % inhibition and X is compound concentration).
as §2, with “The testing results of the representative compounds are listed in Table 1 below. •” for “2. HDAC-1 and HDAC-6 Assays: •”, “Method 2:” for “Method 1:”, “HDAC-1 (Active Motif) and” for “HDAC-1 or”, “(Synergy” for “(Synergy MX”, “obtain IC50” for “obtain ICso”

For assay [5], the target named is recombinant, full-length HDAC-6 (Homo sapiens (Human), UniProt Q9UBN7). In words: HDAC-6 assay (fluorogenic Ac-peptide-AMC). As to the method: as §2
recombinant, full-length HDAC-6, sequence (Q9UBN7 whole entry): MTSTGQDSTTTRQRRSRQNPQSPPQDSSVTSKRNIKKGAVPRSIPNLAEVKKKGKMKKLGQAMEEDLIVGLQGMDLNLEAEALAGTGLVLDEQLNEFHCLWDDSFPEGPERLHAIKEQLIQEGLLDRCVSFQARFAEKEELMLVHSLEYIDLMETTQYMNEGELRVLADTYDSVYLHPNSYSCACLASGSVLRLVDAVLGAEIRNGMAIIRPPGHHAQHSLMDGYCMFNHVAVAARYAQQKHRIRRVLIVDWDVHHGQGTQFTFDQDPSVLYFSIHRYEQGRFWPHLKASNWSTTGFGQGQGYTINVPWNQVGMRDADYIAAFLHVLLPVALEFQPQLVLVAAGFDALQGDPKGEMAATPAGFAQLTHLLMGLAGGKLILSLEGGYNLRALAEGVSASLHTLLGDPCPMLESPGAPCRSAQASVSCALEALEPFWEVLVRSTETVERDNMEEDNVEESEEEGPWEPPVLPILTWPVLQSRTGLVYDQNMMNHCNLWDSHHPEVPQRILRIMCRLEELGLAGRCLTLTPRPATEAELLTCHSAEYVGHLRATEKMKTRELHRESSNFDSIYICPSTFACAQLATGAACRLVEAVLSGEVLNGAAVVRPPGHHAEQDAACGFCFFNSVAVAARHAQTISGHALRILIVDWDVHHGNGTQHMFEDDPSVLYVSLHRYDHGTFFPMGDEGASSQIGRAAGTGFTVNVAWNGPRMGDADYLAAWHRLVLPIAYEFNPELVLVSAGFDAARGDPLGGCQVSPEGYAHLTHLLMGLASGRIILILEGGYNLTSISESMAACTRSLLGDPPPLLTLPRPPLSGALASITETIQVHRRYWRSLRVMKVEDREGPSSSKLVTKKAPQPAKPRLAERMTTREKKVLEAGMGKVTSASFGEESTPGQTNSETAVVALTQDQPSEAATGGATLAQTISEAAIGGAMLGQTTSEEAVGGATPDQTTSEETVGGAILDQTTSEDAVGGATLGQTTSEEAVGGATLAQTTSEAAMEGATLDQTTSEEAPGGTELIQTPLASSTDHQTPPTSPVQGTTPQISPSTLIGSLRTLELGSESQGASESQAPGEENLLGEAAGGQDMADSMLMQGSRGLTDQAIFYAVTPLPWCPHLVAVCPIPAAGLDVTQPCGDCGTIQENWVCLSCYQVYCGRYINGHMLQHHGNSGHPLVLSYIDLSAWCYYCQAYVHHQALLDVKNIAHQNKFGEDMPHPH
as §2, with “The testing results of the representative compounds are listed in Table 1 below. •” for “2. HDAC-1 and HDAC-6 Assays: •”, “Method 2:” for “Method 1:”, “HDAC-1 (Active Motif) and” for “HDAC-1 or”, “(Synergy” for “(Synergy MX”, “obtain IC50” for “obtain ICso”

The mark [6] stands for this setting: method 1: CDK4/CycD3 10 nM, ATP Km 221 μM, 180 min.
The mark [7] stands for this setting: method 1: CDK6/cycD3 15 nM, ATP Km 800 μM, 60 min.
The mark [8] stands for this setting: method 1: CDK2/CycA2 12 nM, ATP Km 39 μM, 60 min.
[9] abbreviates: method 1: HDAC-1 protein (BPS Biosciences).
Where [10] appears, read: method 1: HDAC-6 protein (BPS Biosciences).
Setting [11] is: method 2: CDK4/CycD3 10 nM, ATP Km 250 μM, 150 min.
The mark [12] stands for this setting: method 2: CDK6/cycD3 5 nM, ATP Km 550 μM, 150 min.
Setting [13] is: method 2: CDK2/CycA2 2.5 nM, ATP Km 17 μM, 30 min.
Where [14] appears, read: method 2: HDAC-1 (Active Motif).
Setting [15] is: method 2: HDAC-6 protein (BPS Biosciences).

pIC50: −log10 of the molar value. Bounds are passed on as bounds.

CDK4/CycD3, sequence (P11802 whole entry, species assumed, canonical isoform): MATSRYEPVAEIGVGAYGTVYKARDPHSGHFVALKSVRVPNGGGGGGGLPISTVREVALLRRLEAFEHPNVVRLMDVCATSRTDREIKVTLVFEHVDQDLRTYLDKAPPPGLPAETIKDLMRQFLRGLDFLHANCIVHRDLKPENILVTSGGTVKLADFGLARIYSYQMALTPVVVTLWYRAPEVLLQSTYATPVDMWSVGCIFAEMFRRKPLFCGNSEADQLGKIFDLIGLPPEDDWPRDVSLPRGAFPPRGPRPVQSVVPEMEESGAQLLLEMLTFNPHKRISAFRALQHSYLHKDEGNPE
CDK4/CycD3, sequence (P30281 whole entry partner, species assumed, canonical isoform): as the sequence (P30281 whole entry partner, species assumed) above
recombinant, full-length HDAC-1, sequence (Q13547 whole entry): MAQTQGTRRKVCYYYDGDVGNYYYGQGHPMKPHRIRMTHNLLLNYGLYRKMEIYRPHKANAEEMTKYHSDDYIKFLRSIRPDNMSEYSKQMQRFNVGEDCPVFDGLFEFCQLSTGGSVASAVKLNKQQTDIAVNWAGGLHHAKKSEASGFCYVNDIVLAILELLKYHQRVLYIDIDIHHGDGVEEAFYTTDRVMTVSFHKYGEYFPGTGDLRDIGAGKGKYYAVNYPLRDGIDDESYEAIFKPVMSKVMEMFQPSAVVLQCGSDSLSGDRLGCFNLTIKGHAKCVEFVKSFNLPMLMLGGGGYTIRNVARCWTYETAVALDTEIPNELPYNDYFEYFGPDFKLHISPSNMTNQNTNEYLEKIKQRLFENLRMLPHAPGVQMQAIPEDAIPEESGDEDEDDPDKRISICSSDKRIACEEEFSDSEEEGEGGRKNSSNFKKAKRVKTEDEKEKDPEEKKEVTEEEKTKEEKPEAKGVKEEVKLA

Turning to `CC(=O)c1c(C)c2cnc(Nc3ccc(N(C)CCN(C)c4ncc(C(=O)NO)cn4)cn3)nc2n(C2CCCC2)c1=O` [Compound 1, 2-((2-((6-((6-acetyl-8-cyclopentyl-5-methyl-7-oxo-7,8-dihydropyrido[2,3-d]pyrimidin-2-yl)amino)pyridin-3-yl) (methyl)amino)ethyl) (methyl)amino)-N-hydroxypyrimidine-5-carboxamide], the negative logarithm of the IC50 (pIC50) in assay [1] (setting [6]) is no less than 8.00; in assay [2] (setting [7]) it was 7.30 to 7.60; in assay [3] (setting [8]) it was less than 5.00; in assay [4] (setting [9]), 8.00 to 8.30; in assay [5] (setting [10]), 7.30 to 8.00.

Turning to `CC(=O)c1c(C)c2cnc(Nc3ccc(N(C)Cc4ccc(/C=C/C(=O)NO)cc4)cn3)nc2n(C2CCCC2)c1=O` [Compound 2, (E)-3-(4-(((6-((6-acetyl-8-cyclopentyl-5-methyl-7-oxo-7,8-dihydropyrido[2,3-d]pyrimidin-2-yl)amino)pyridin-3-yl)(methyl)amino)methyl)phenyl)-N-hydroxyacrylamide], the pIC50 in assay [1] (setting [6]) was 7.60 to 8.00; in assay [2] (setting [7]), 7.00 to 7.30; in assay [3] (setting [8]) it was less than 5.70; in assay [4] (setting [9]), 7.30 to 8.00; in assay [5] (setting [10]), 7.12 to 7.30.

Consider `CC(=O)c1c(C)c2cnc(Nc3ccc(N(C)CCN(C)c4ccc(C(=O)NO)cn4)cn3)nc2n(C2CCCC2)c1=O` [Compound 3, 6-((2-((6-((6-acetyl-8-cyclopentyl-5-methyl-7-oxo-7,8-dihydropyrido[2,3-d]pyrimidin-2-yl)amino)pyridin-3-yl)(methyl)amino)ethyl)(methyl)amino)-N-hydroxynicotinamide], for which the pIC50 in assay [1] (setting [11]) was 7.60 to 8.00; in assay [2] (setting [12]) it was 7.30 to 7.60; in assay [3] (setting [13]), less than 5.70; in assay [4] (setting [14]), 7.12 to 7.30; in assay [5] (setting [15]) it was 7.00 to 7.12.

Regarding `CC(=O)c1c(C)c2cnc(Nc3ccc(N(C)CCN(C)c4ccc(C(=O)NO)nc4)cn3)nc2n(C2CCCC2)c1=O` [Compound 4, 5-((2-((6-((6-acetyl-8-cyclopentyl-5-methyl-7-oxo-7,8-dihydropyrido[2,3-d]pyrimidin-2-yl)amino)pyridin-3-yl)(methyl)amino)ethyl)(methyl)amino)-N-hydroxypicolinamide], the pIC50 in assay [1] (setting [11]) was no less than 8.00; in assay [2] (setting [12]), 7.30 to 7.60; in assay [3] (setting [13]), less than 5.30.

In the case of `CC(=O)c1c(C)c2cnc(Nc3ccc(OCCN(C)c4ccc(C(=O)NO)cn4)cn3)nc2n(C2CCCC2)c1=O` [Compound 5, 6-((2-((6-((6-acetyl-8-cyclopentyl-5-methyl-7-oxo-7,8-dihydropyrido[2,3-d]pyrimidin-2-yl)amino)pyridin-3-yl)oxy)ethyl)(methyl)amino)-N-hydroxynicotinamide], the pIC50 in assay [1] (setting [11]) is no less than 8.00; in assay [2] (setting [12]), 7.30 to 7.60; in assay [3] (setting [13]) it was less than 5.70; in assay [4] (setting [14]), no less than 8.30; in assay [5] (setting [15]) it was 8.00 to 8.30.

Take `CC(=O)c1c(C)c2cnc(Nc3ccc(N4CCC(C(=O)NO)CC4)cn3)nc2n(C2CCCC2)c1=O` [Compound 7, 1-(6-((6-acetyl-8-cyclopentyl-5-methyl-7-oxo-7,8-dihydropyrido[2,3-d]pyrimidin-2-yl)amino)pyridin-3-yl)-N-hydroxypiperidine-4-carboxamide]: the pIC50 in assay [1] (setting [11]) is no less than 8.00; in assay [2] (setting [12]), 7.30 to 7.60; in assay [3] (setting [13]) it was less than 5.70.

`CC(=O)c1c(C)c2cnc(Nc3ccc(N(C)CCN(C)c4ccc(C(=O)NO)cc4)cn3)nc2n(C2CCCC2)c1=O` [Compound 8, 4-((2-((6-((6-acetyl-8-cyclopentyl-5-methyl-7-oxo-7,8-dihydropyrido[2,3-d]pyrimidin-2-yl)amino)pyridin-3-yl) (methyl)amino)ethyl) (methyl)amino)-N-hydroxybenzamide]: the pIC50 in assay [1] (setting [11]) is no less than 8.00; in assay [2] (setting [12]), 7.30 to 7.60; in assay [3] (setting [13]), less than 5.30.

Turning to `CC(=O)c1c(C)c2cnc(Nc3ccc(N(C)CCCCCCC(=O)NO)cn3)nc2n(C2CCCC2)c1=O` [Compound 9, 7-((6-((6-acetyl-8-cyclopentyl-5-methyl-7-oxo-7,8-dihydropyrido[2,3-d]pyrimidin-2-yl)amino)pyridin-3-yl)(methyl)amino)-N-hydroxyheptanamide], the negative-log IC50 (pIC50) in assay [1] (setting [11]) is 7.60 to 8.00; in assay [2] (setting [12]), 7.30 to 7.60; in assay [3] (setting [13]), less than 5.30; in assay [4] (setting [14]), 8.00 to 8.30; in assay [5] (setting [15]) it was 7.30 to 8.00.

As for `CC(=O)c1c(C)c2cnc(Nc3ccc(OCCN(C)c4ncc(C(=O)NO)cn4)cn3)nc2n(C2CCCC2)c1=O` [Compound 10, 2-((2-((6-((6-acetyl-8-cyclopentyl-5-methyl-7-oxo-7,8-dihydropyrido[2,3-d]pyrimidin-2-yl)amino)pyridin-3-yl)oxy)ethyl)(methyl)amino)-N-hydroxypyrimidine-5-carboxamide], the pIC50 in assay [1] (setting [11]) was 7.60 to 8.00; in assay [2] (setting [12]) it was 7.30 to 7.60; in assay [3] (setting [13]) it was less than 5.00; in assay [4] (setting [14]), no less than 8.30; in assay [5] (setting [15]), 7.30 to 8.00.
